Like-named read-outs stand apart in the source and are kept apart here.
Tests used:
[1] = biological target: T1, B. theta BSH (Bacteroides thetaiotaomicron, UniProt Q8A600); assay: Compound 7 kinetic studies (time to complete inhibition); assay type: biochemical
Protocol: Formation of deconjugated bile acid was measured using a UPLC-MS-based assay and reported as % conversion.
Compound 7 Kinetic Studies. […] B. theta BSH (200 nM) was added to a pool of 100 μM bile acid pool and 100 μM 7. 500 μL aliquots were removed at indicated time points and flash frozen in liquid nitrogen. […] Procedure was repeated with 8.2 mM TUDCA.

[2] = test system: C57BL/6 mice; assay type: in vivo, mouse; conditions: single gavage 10 mg/kg; for BSH activity in feces: 1 day and 1.5 days post-gavage
Protocol: Mice were split into two groups of four mice each and were gavaged with either 200 μL of corn oil containing 5% DMSO (vehicle group) or with 200 μL of corn oil containing 7 at a concentration of 1.25 mg/mL (experimental group). For the fecal pellet collection, each mouse was transferred to a temporary cardboard cage for a few minutes until it defecated.
Quantification of Bile Acids in Tissues and Plasma.
Determination of Microbial Biomass by Plating. Frozen fecal pellets were used to determine colony forming units (CFU/g). Feces were suspended in PBS buffer in an anaerobic chamber. Serial dilutions were plated on CHG agar plates (see “Bacterial Culturing”) and incubated at 37° C.
Isolation of Fecal Bacterial Microbiota and 16S rRNA Gene Sequencing Analysis. Mouse fecal microbiota DNA was isolated by using ZymoBIOMICS 96 DNA Kit (ZymoBIOMICS™) according to the manufacturer's instructions. […]
Gel electrophoresis was used to check the success of PCR amplification. The concentration of the PCR product was measured by the Quan-IT dsDNA high sensitivity assay. ˜120 ng of DNA of each PCR product was pooled together to generate an aggregated library for downstream processing. PCR DNA amplicons between 300-500 bp were selected from the aggregated library on a targeted size selection platform (pippin prep 1.5% agarose cassette from Sage Sciences) according to the manufacturer's instructions. The size of DNA amplicons was characterized on an Agilent Technologies 2100 bioanalyzer trace. DNA concentration of the aggregated library was measured by the Quant-IT dsDNA high sensitivity assay. […] 600 ul of the denatured and diluted library with 20% phiX spike-in (120 ul, 7.5 pM of phiX) was loaded onto the MiSeq V2 reagent cartridge (Illumina) and was sequenced with paired-end 250 bp reads using the custom primers described above. […] The resulting FASTQ sequences were then quality-filtered and analyzed by following QIIME_mothur_DADA2.^56-59 Operational Taxonomic Units (OTUs) were picked with 97% sequence similarity. […]

[3] = test system: B. adolescentis BSH; assay: Target validation and off-target profiling in B. adolescentis using 7-N3; assay type: cell-based, Bifidobacterium adolescentis L2-32; conditions: decreasing concentrations of 7 for 1 h, then 10 μM 7-N3
Protocol: Target Validation and Off-target Profiling in B. adolescentis using 7-N3. Pilot studies with 7-N3 were performed using B. adolescentis (Gram positive) and B. theta (Gram negative). We chose to use B. adolescentis due to the stronger total fluorescent signal detected by-in gel fluorescence. […] Cultures were allowed to grow anaerobically at 37° C. for 21 h. 10 μM 7-N3 (10 mM stock in DMSO) or […] DMSO (to control tubes) was then added to the cultures and incubated anaerobically at 37° C. for 1 h. The cultures were centrifuged at 2,500 g at 4° C. for 15 mins. The media was decanted and cells were resuspended in PBS containing 1 mM TCEP and 1 mM PMSF and centrifuged 4,200 rpm at 4° C. for 15 mins. The buffer was decanted and the cells were suspended in 300 μL of fresh buffer and transferred to homogenizing tubes (Precellys lysing kit tough micro-organism lysing VK05 tubes) with ceramic beads. The suspension was then homogenized (5000 speed for 90 s*2, 6500 speed for 60 s) and spun down for 20 min at 15,000 g at 4° C. The supernatant was removed and the concentration of proteins in the lysate was quantified by Bradford assay. The lysates were then subjected to click reaction as per “Click Chemistry for In-gel Fluorescence Imaging” for fluorescence imaging and “Click Chemistry for MS/MS on Bacterial Lysate” for mass spectrophotometer-based quantification and identification.
Cultures were allowed to grow anaerobically at 37° C. for 21 h. Decreasing concentrations of 7 were added to different tubes and the cultures were incubated anaerobically at 37° C. for 1 h. 10 μM 7-N3 was then added to the cultures and incubated anaerobically at 37° C. for an additional hour. The cultures were further processed as per the reported method in “Target Validation and Off-target Profiling in B. adolescentis using 7-N3” and “Click Chemistry for In-gel Fluorescence Imaging”.
Click Chemistry for In-gel Fluorescence Imaging. Click reactions were performed on 25 μL scale. Lysates (normalized to 1.5 mg/mL for both bacterial and mammalian cells) pretreated with 10 μM Compound 7-N3 were incubated with 100 μM fluor 488-alkyne (10 mM stock in DMSO), 100 μM CuBr (5 mM stock in DMSO), and 100 μM Tris[(1-benzyl-1H-1,2,3-triazol-4-yl)methyl]amine (5 mM stock in 4:1 t-BuOH:DMSO) for 1 h at 37° C. in the dark. 10 μL of 2×Laemmli buffer (containing 5% β-mercaptoethanol) was added to the reactions and the tubes were heated at 95° C. for 10 mins. 15 μL of the protein samples were then resolved by 10% SDS-PAGE. The ladder was diluted 100-fold and 10 μL was loaded. Gels were destained for 30 mins using 40% methanol, 50% acetic acid, 10% water and visualized using Bio-Rad ChemiDoc MP Imaging System. Gels were stained for 20 mins in Coomassie blue and destained for 2 h prior to imaging.
Click Chemistry for MS/MS on Bacterial Lysate. Click reactions were performed on 100 μL scale. Lysates (normalized to 1.3 mg/mL) pretreated with 10 μM 7-N3 were incubated with 100 μM desthiobiotin-PEG4-alkyne (10 mM stock in DMSO), 1 mM CuBr (50 mM stock in DMSO), and 1 mM Tris[(1-benzyl-1H-1,2,3-triazol-4-yl)methyl]amine (50 mM stock in 4:1 t-BuOH:DMSO) for 1 h at 37° C. The samples were then processed for further analysis as per “Proteomic Analysis of Click-Tagged Proteins”.
Proteomic Analysis of Click-Tagged Proteins.

[4] = biological target: T1, B. theta BSH; assay: Inhibitor screen using rBSH, B. theta BSH (UPLC-MS % deconjugation)
[5] = Supplementary FIG. 3a, 5 hours, 100 μM inhibitor, 200 nM rBSH, bile acid pool, replicates 1-3

## C[C@H](CCC(=O)CF)[C@H]1CC[C@H]2[C@@H]3[C@H](O)C[C@@H]4C[C@H](O)CC[C@]4(C)[C@H]3CC[C@]12C [Compound 7]
[1]; 100 μM 7 equimolar to substrate, no preincubation
  time to complete inhibition of B. theta BSH: ≤ 15 s
[1]; large excess (~80-fold) of substrate (8.2 mM TUDCA)
  time to entire inhibition of B. theta BSH activity: ≤ 15 min
[2]; 10 mg/kg
  BSH activity in feces: significant decrease in BSH activity in feces
[2]; listed as compound 7, 10 mg/kg
  BSH activity in feces: significantly lower
[2]; 1 day post-gavage
  fecal deoxycholic acid (DCA): a decrease in the deconjugated secondary bile acid deoxycholic acid (DCA) was observed
[3]
  competition of 7 with 7-N3 for labeling of B. adolescentis BSH: dose-dependent labeling
[4]; FIG. 2a, 2 hours, 100 μM inhibitor, 200 nM rBSH, bile acid pool, replicates 1-3
  % deconjugation of TβMCA: 0.00%
[4]; FIG. 2a, 21 hours, 100 μM inhibitor, 200 nM rBSH, bile acid pool, replicates 1-3
  % deconjugation of TβMCA: 0.00%
[4]; [5]
  % deconjugation of TCA: 0.00%
  % deconjugation of TβMCA: 0.00%
[4]; read-out: inhibition of B. theta BSH activity for 21 hours
  inhibition at 100 µM: > 98%

— patent publication US12577273B2, “Small molecule modulators of gut bacterial bile acid metabolism” (priority 2019, dated 2026)
